From patent US12410185B2, “Compounds targeting mutant calreticulin” (MYELOPRO DIAGNOSTICS AND RESEARCH GmbH, priority 2018, dated 2025)

Key:
[1] = system: Ba/F3-MPL cell lines carrying C-terminal truncated CALR; assay: cytotoxicity assay in cell lines with C-terminal truncated CALR; format: cell-based, mouse; details: truncated CALR mutations vs disease frameshift
Description: (§1) In order to further confirm the selective cytotoxicity of hematoxylin in CALR mutant cells, two-color competition assays were performed in both Ba/F3 and UT-7-TPO cells to assess the long-term efficacy of the compound (FIG. 9). […] The differential killing effect of hematoxylin could also be reproduced in the UT-7-TPO cell line. […] This reading frame encounters a stop codon shortly after the mutation and causes a truncation at the CALR C-terminus (FIG. 12). […] Moreover, CALR KO Ba/F3-MPL cell lines were tested for hematoxylin sensitivity.

[2] = system: CALR KO Ba/F3-MPL cell lines; assay: hematoxylin sensitivity of CALR knockout cell lines; format: cell-based, mouse; details: CALR KO vs CALR WT clones
Description: as §1

[3] = system: CALR expression (mRNA); assay: Real-time PCR analysis of Ba/F3-MPL cell lines; format: cell-based, mouse; details: 20 uM, 24 h
Description: FIG. 19: Real-time PCR analysis of Ba/F3-MPL cell lines after a 24 h treatment with hematoxylin. Ba/F3-MPL CALR WT, CALR homozygous mutant del37/del37 cell line were treated with 20 uM hematoxylin or an equivalent amount of DMSO as control for 24 h before cell collection and RNA extraction. **P<0.01; ***P<0.001
1 million cells from each sample were collected and washed with PBS twice. RNA samples were extracted by using the RNeasy Mini Kit (Qiagen). Taqman® Gene Expression Assays (Mm01545399_m1) was used to quantify the expression of CALR, and the real-time PCR reaction was performed using a 7500 Fast Real-Time PCR machine (Applied Biosystems™). Statistical test was calculated by Graphpad Prism 7.0 using the two-tailed Student's t test.

[4] = system: CD34+ cells from CALR mutated patients; assay: colony formation assay; format: cell-based, human; details: 40 uM hematoxylin vs DMSO
Description: CD34-positive cells from healthy controls and CALR mutant patients were isolated by EasySep™ Human CD34 Positive Selection Kit (#18056; [sequence] Technologies) according to the manufacturer's instructions. StemSpan™ SFEM II (#09655 or #17856; [sequence] Technologies) supplemented with 1× StemSpan™ CD34+ Expansion Supplement (#02691; [sequence] Technologies) was used to culture and expand the isolated CD34-positive cells, preferably for no more than 8 days before experiments or storage. 1000 human CD34-positive cells were plated in 1 ml of Methocult classic medium ([sequence] Technologies, #H4434) with 40 uM hematoxylin or DMSO control. Cells were incubated for 14 days before colony counting. Statistical test was calculated using two-way ANOVA with Sidak's multiple comparisons test.

Oc1cc2c(cc1O)[C@@H]1c3ccc(O)c(O)c3OC[C@]1(O)C2 [hematoxylin, Hematoxylin]
hypersensitivity towards compound treatment [1]: did not show hypersensitivity | hypersensitivity towards the treatment [2]: did not show hypersensitivity | magnitude of change (up-regulation) of wild-type and mutant CALR mRNA expression [3]: around 1.3 fold | number of colony forming units [4]: significantly reduced
